Source: patent US8722736B2, “Multi-dose concentrate esmolol with benzyl alcohol” (Baxter International Inc., priority 2007, dated 2014)

Experiment: pH dependence of esmolol degradation
Type: physicochemical
Text: The concentrate of present invention can also include a pharmaceutically acceptable buffer to aid in maintaining the pH in a range of from about 3.5 to about 7.0. Preferably, the pH is maintained between about 4.5 and about 5.5, more preferably between 4.9 and 5.1. […] Suitable buffers are those buffers that provide sufficient buffering capacity at the desired pH range and are pharmaceutically acceptable for injection into a patient. Examples of buffers useful in the present invention include, but are not limited to, acetate, glutamate, citrate, tartrate, benzoate, lactate, gluconate, phosphate and glycine and conjugate acids thereof. The concentration of the buffer can be from about 0.005 to about 2 M. In a preferred embodiment, the buffering agent comprises a combination of sodium acetate and glacial acetic acid. A preferred combination of buffers can include sodium acetate at from about 0.005 to about 0.3 M and glacial acetic acid at from about 0.05 to about 0.3 M.

COC(=O)CCc1ccc(OCC(O)CNC(C)C)cc1.Cl (stereo not shown) [esmolol, methyl3-[4-[2-hydroxy-3-(isopropylamino)propoxy]phenyl]propionate hydrochloride]
pH at which esmolol is most stable: about 5.0
